In patent publication US5775329A, “Method and compounds for diagnosing coronary artery disease” (Gensia, Inc., priority 1995, dated 1998):
Entries after “also recorded” stand apart in the source; their conditions may differ. Structures can show the parent of a compound that is named as a salt.

How the values were obtained:
β1-adrenoreceptor = target: T1, β1-adrenoreceptor (Cavia porcellus, UniProt H0W3H1); assay: In vitro bioassay for β1-adrenergic activity (atrial rate); assay type: biochemical; conditions: guinea pig atria, 37° C., pH=7.4, approximately four atrial preparations per compound
T1 construct: the hearts were excised and placed in ice-cold oxygenated Krebs Ringer buffer; tissue Charles River Laboratories (animals); host or cells: guinea pig atria (right and left, paired)
Method: (§1) In Vitro Bioassays for β1 -, β2 - and α-Adrenoreceptor Activity
(§2) Functional evaluation of β1 -, β2 - and α-adrenoreceptor activity was performed using in vitro preparations of guinea pig atria, guinea pig trachea, and rabbit aorta, respectively (Young, et. al, Drug Dev. Res. 1994, 32, 19-28).
For the atrial assay of β1 -adrenergic activity, male Hartley guinea pigs (350-500 g; Charles River Laboratories, Wilmington, Mass.) were sacrificed by decapitation and the hearts were excised and placed in ice-cold oxygenated Krebs Ringer buffer. The atria were separated from the ventricles, leaving the right and left atria attached as a pair. A suture was placed at the apex of each atrial appendage for securing the tissue within the organ bath. The water-jacketed 25-ml organ baths were maintained at 37° C. and filled with Krebs Ringer solution aerated with 95% O2 and 5% CO2. The atrial pairs were equilibrated for at least 20 min after application of 1 g resting tension. β1 -adrenergic activity was assessed using atrial rate (beats per min) and amplitude of contraction (g tension) which were monitored at 1 and 5 min after dosing. Concentration-response curves (10^-11 -10^-4 M) were obtained by cumulative addition of drug to the bath. Following the completion of the dose response curves, isoproterenol was added to assess maximal response of each atrial preparation. EC50 values were calculated from the rate results of approximately four atrial preparations per compound.
(§3) In all experiments, tension was measured by isometric force transducers (52-9529, Harvard Apparatus, Natick, Mass.) coupled to an ink-writing recorder (Gould, Cleveland Ohio). The Krebs Ringer solution contained the following ingredients (mM): NaCl (118.1), NaHCO3 (25.0), D-glucose (11.1), KH2 PO4 (1.2), KCl (4.8), MgSO4 (1.2), CaCl2 (2.5), pH=7.4.

α-adrenoreceptor = assay: In vitro bioassay for α-adrenergic activity (contraction of aortic rings); assay type: biochemical; conditions: rabbit aortic rings, propranolol pretreated, 37° C., pH=7.4, read-out: α (aorta)
Method: as §1, §2
For evaluation of α-adrenergic activity, male New Zealand white rabbits (2.5 kg) (Simunek Rabbitry, Vista, Calif.) were sacrificed by carbon dioxide inhalation and the thoracic aorta was quickly excised and placed in Krebs Ringer solution. The aorta was cut into 3-mm rings which were subsequently suspended on hooks in organ baths. The 2.5-ml water-jacketed baths were maintained at 37° C. and filled with Krebs Ringer solution aerated with 95% O2 and 5% CO2. The vascular rings were equilibrated for 1 h following the application of a resting tension of 4 g, during which time the buffer was changed at 15-min intervals. All rings were pretreated with propranolol ([…]) 10 min prior to addition of test compounds. Concentration-response curves were obtained by cumulative addition of compound to the organ bath, the concentration being increased only after maximal response to the preceding concentration was attained. After the final response was attained for each test drug, norepinephrine ([…]) was added to assess maximal contraction. Responses are expressed as a percent of the maximal contraction by norepinephrine.
as §3

heart rate = assay: Pharmacodynamics in conscious dogs during transdermal iontophoretic administration; assay type: in vivo, dog; conditions: 10 min
Method: Pharmacodynamics in conscious dogs during transdermal iontophoretic administration
Dogs were trained to lie quietly on a table. Heart rate was monitored by ECG limb leads. Novel catecholamines were administered from a gel-filled electrode placed on the surface of the skin. A second electrode was placed on the skin to complete the electrical circuit. All compounds were delivered using a current of 0.25 mA for a period of 10 minutes. Heart rate was monitored by the ECG, and the T50 of the compound was measured as the time after termination of current required for heart rate to return 50% toward baseline rate. A "delay" time was also measured as the time required for heart rate to begin to fall, following termination of current.

[1] = test system: heart rate (chronotropic response); assay: Pharmacodynamics in conscious dogs during i.v. administration (chronotropic response and offset); assay type: in vivo, dog
Method: […] The T50 s were measured from end of infusion.
Pharmacodynamics in conscious dogs during i.v. administration
Dogs were trained to lie quietly on a table. Novel catecholamine compounds were administered via a venous catheter acutely placed in a leg vein. […] Heart rate was recorded by computer from ECG limb leads at 5 second intervals throughout the experiment. […]

β2-adrenoreceptor = target: T2, β2-adrenoreceptor (Cavia porcellus, UniProt Q8K4Z4); assay: In vitro bioassay for β2-adrenergic activity (relaxation of precontracted tracheal rings); assay type: biochemical; conditions: guinea pig tracheal rings precontracted with carbachol, 37° C., pH=7.4, read-out: β2 (trachea)
T2 construct: the trachea was gently excised and placed in ice-cold aerated Krebs Ringer solution; from tissue; host or cells: guinea pig tracheal rings
Method: as §1, §2
For the tracheal assay of β2 -adrenergic activity, male Hartley guinea pigs (350-500 g) were sacrificed by carbon dioxide inhalation and the trachea was gently excised and placed in ice-cold aerated Krebs Ringer solution. β2 -adrenergic activity was assessed as the relaxation of rings following precontraction with carbachol. The trachea were cut into transverse rings containing two cartilage segments, and sutures were tied onto the cartilage on either side of the band of smooth muscle of each ring. The sutures were used to mount the individual rings in a 2.5-ml organ bath and to measure tension with an isometric force transducer. The water-jacketed organ baths maintained the preparation at 37° C. and were filled with Krebs Ringer solution aerated with 95% O2 and 5% CO2. The tracheal rings were equilibrated for 1 h following the application of 0.5 g resting tension. In some cases, equilibrated rings were then treated with the α2 -antagonist rauwolscine ([…]) and the β1 -antagonist atenolol ([…]) prior to precontraction with carbachol ([…]). Precontracted rings used as controls received treatments of saline only. Concentration-response curves were obtained by cumulative addition of drug to the organ bath, the concentration being increased only after the maximal relaxation to the preceding concentration was attained. After the final response was attained, isoproterenol ([…]) was added to assess maximal response for each preparation.
as §3

[2] = iontophoresis 0.25 mA, concentration (mM): isoproterenol 2.5, arbutamine 20, Ex 4 2, Ex 1 3, Ex 11 12, Ex 9 8, Ex 6 8
[3] = Table I, i.v., measured from end of infusion at highest dose 100 ng/kg/min
[4] = Table I, stable increase over baseline at highest dose (100 ng/kg/min i.v.), ascending doses
[5] = Example 13, i.v. stepwise ascending doses up to 100 ng/kg/min
[6] = Example 13, i.v., from termination of infusion (100 ng/kg/min) to 50% fall in heart rate towards baseline
[7] = Example 13, i.v., dose reached 300 ng/kg/min

T2 sequence (Q8K4Z4 whole entry): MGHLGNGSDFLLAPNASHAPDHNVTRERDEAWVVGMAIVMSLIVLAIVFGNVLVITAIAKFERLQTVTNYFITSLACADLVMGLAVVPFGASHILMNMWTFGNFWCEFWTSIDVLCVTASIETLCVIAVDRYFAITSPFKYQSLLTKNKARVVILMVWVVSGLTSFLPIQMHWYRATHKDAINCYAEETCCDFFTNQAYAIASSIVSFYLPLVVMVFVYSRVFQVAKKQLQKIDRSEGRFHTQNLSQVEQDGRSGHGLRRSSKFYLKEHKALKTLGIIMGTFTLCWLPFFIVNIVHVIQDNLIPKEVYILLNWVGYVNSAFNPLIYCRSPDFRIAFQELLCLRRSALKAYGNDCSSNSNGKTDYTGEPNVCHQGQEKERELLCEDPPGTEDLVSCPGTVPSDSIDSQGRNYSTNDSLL
T1 sequence (H0W3H1 1-470): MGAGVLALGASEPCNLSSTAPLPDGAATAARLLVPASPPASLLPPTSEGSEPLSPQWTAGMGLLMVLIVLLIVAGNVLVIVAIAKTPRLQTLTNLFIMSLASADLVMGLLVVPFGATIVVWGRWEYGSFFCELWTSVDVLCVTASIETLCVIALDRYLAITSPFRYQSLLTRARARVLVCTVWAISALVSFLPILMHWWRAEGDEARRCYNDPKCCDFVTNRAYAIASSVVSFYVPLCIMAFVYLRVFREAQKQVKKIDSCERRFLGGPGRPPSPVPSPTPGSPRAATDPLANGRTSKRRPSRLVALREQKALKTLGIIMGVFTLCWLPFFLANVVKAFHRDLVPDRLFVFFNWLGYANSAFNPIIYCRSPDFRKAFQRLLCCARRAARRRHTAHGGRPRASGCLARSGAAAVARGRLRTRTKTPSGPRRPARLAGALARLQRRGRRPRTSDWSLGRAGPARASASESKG

SMILES	EC50 (β1-adrenoreceptor)	EC50 (α-adrenoreceptor)	EC50 (β2-adrenoreceptor)	Delay (time required for heart rate to begin to fall following termination of current) (heart rate; [2])	T50 (time after termination of current for heart rate to return 50% toward baseline) (heart rate; [2])	Δ Heart Rate (heart rate; [2])	T50 [1, 3]	Δ Heart Rate [1, 4]	Δ Heart Rate (heart rate)	Δ Heart Rate [1, 5]	T50 [1, 6]	T50 [1, 7]	Δ Heart Rate [1, 7]	offset time / T50 (in words) ([1]; i.v., compared with isoproterenol and arbutamine)	T50 (time required for the chronotropic response to decrease by 50%) ([1]; oxalate salt, dog studies)
CC(CCC[S+](C)[O-])NC[C@H](O)c1ccc(O)c(O)c1 (stereo partly drawn) [*, 1 (R)(3,4-dihyroxyphenyl)-2-(1-methyl-4-methylsulfinylbutylamino) ethano oxalate salt]	1.4 ± 0.3 nM	7830 ± 239 nM													
Oc1ccc(CCCCNC[C@H](O)c2ccc(O)c(O)c2)cc1 [Arbutamine, reference compound]				2.3 ± 1.4 min	24.8 ± 2.7 min	84 ± 5 beats/min	7.2 ± 1.1 min	84 ± 9 beats/min							
N#CCCCNC[C@H](O)c1ccc(O)c(O)c1 [Example 1, 1-(R)-(3,4-dihydroxyphenyl)-2-(3-cyanopropylamino)ethanol]	4.6 ± 0.7 nM	7500 ± 2840 nM	4.7 ± 1.2 nM	1.9 ± 0.5 min	12.4 ± 1.3 min				77 ± 1.3 beats/min	109 ± 5	6.9 ± 0.6 min				
CC(CCCC#N)NC[C@H](O)c1ccc(O)c(O)c1 (stereo partly drawn) [Example 2, 1-(R)-(3,4-dihydroxyphenyl)-2-(1-methyl-4-cyanobutylamino)ethanol]	3.4 ± 0.4 nM	15600 ± 8220 nM	2.7 ± 0.5 nM												
COCCCNC[C@H](O)c1ccc(O)c(O)c1 [Example 3, 1-(R)-(3,4-dihydroxyphenyl)-2-(3-methoxy-propylamino)ethanol]	19 ± 5.4 nM	61300 ± 3820 nM	21 ± 3 nM												
CC(C)NCC(O)c1ccc(O)c(O)c1 (centres unmarked) [Isoproterenol, reference compound]				1.2 ± 0.5 min	12.2 ± 1.9 min	80 ± 11 beats/min	5.5 ± 1.0 min	103 ± 12 beats/min							

Continued, in another order:

EC50 (β1-adrenoreceptor)	EC50 (α-adrenoreceptor)	EC50 (β2-adrenoreceptor)	SMILES	Delay (time required for heart rate to begin to fall following termination of current) (heart rate; [2])	T50 (time after termination of current for heart rate to return 50% toward baseline) (heart rate; [2])	Δ Heart Rate (heart rate; [2])	T50 [1, 3]	Δ Heart Rate [1, 4]	Δ Heart Rate (heart rate)	Δ Heart Rate [1, 5]	T50 [1, 6]	T50 [1, 7]	Δ Heart Rate [1, 7]	offset time / T50 (in words) ([1]; i.v., compared with isoproterenol and arbutamine)	T50 (time required for the chronotropic response to decrease by 50%) ([1]; oxalate salt, dog studies)
1.1 ± 0.2 nM	> 100000 nM	9.9 ± 1.3 nM	COCCC(C)NC[C@H](O)c1ccc(O)c(O)c1 (stereo partly drawn) [Example 4, 1-(R)-(3,4-dihydroxyphenyl)-2-(1-methyl-3-methoxypropylamino)ethanol]	0.3 ± 0.1 min	9.1 ± 0.8 min	79 ± 8 beats/min				98 ± 8	5.0 ± 0.7 min				
1.5 ± 0.4 nM	51800 ± 19200 nM	8.2 ± 1.6 nM	COCCCC(C)NC[C@H](O)c1ccc(O)c(O)c1 (stereo partly drawn) [Example 5, 1-(R)-(3,4-dihydroxyphenyl)-2-(1-methyl-4-methoxybutylamino)ethanol]												
14.9 ± 3.6 nM	> 10000 nM	140 ± 35.3 nM	C[S+]([O-])CCCNC[C@H](O)c1ccc(O)c(O)c1 (stereo partly drawn) [Example 6, 1-(R)-(3,4-dihydroxyphenyl)-2-(3-methylsulfinylpropylamino)ethanol]	0.9 ± 0.5 min	13.6 ± 2.3 min	93 ± 6 beats/min				93 ± 3	5.4 ± 1.3 min				
13.3 ± 1 nM	5500 ± 456 nM	245 ± 84.7 nM	C[S+]([O-])CCCCNC[C@H](O)c1ccc(O)c(O)c1 (stereo partly drawn) [Example 7, 1-(R)-(3,4-dihydroxyphenyl)-2-(4-methylsulfinylbutylamino)ethanol]												
0.6 ± 0.3 nM	20900 ± 9850 nM	4.6 ± 0.2 nM	CSCCCC(C)NC[C@H](O)c1ccc(O)c(O)c1 (stereo partly drawn) [Example 8, 1-(R)-(3,4-dihydroxyphenyl)-2-(1-methyl-4-methylthiobutylamino)ethanol]												
2.9 ± 0.6 nM	1400 ± 82 nM	20 ± 3.4 nM	CSCCCCNC[C@H](O)c1ccc(O)c(O)c1 [Example 9, 1-(R)-(3,4-dihydroxyphenyl)-2-(4-methylthiobutylamino)ethanol]	0.6 ± 0.6 min	9.3 ± 0.5 min	82 ± 9 beats/min						3.6 ± 0.34 min	93 ± 6		
4.8 ± 0.7 nM	> 10000 nM	124 ± 13.6 nM	CCSCCCNC[C@H](O)c1ccc(O)c(O)c1 [Example 10, 1-(R)-(3,4-dihydroxyphenyl)-2-(3-ethylthiopropylamino)ethanol]												
9.7 ± 2 nM	88300 ± 5660 nM	16 ± 1.2 nM	CSCCCNC[C@H](O)c1ccc(O)c(O)c1 [Example 11, 1-(R)-(3,4-dihydroxyphenyl)-2-(3-methylthiopropylamino)ethanol]	0.8 ± 0.2 min	12.7 ± 3.6 min	89 ± 7 beats/min	3.6 ± 0.3 min	109 ± 4 beats/min		109 ± 4	3.6 ± 0.2 min			shorter than for both isoproterenol and arbutamine; also recorded: substantially shorter T50 than isoproterenol and arbutamine	3.6 min
